Test system: HUVEC/MSC spheroids viability
Experiment: Human HUVEC/MSC cell line growth inhibition [KRAS2];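 as to viability, T/C: percent of DMSO vehicle control luminescence so 100% = untreated viability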
Settings: for IC50: curve of first compound; for viability, T/C: stronger effect = lower value
Method in brief: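 Stroma-only multicellular spheroids, formed from HUVEC and human MSCs at passages </=5, received RAS-pathway inhibitors with or without a second targeted drug. Dosing followed half-log dilutions from clinically achievable levels.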

## Cn1ncnc1[C@H]1c2n[nH]c(=O)c3cc(F)cc(c23)N[C@@H]1c1ccc(F)cc1 + COc1cc2nc(C)nc(NC(C)c3cc(N)cc(C(F)(F)F)c3)c2cc1OC1CCOC1
Second compound 0.0316 µM
  IC50: > 0.1 µM
Second compound 0.1 µM
  IC50: > 0.1 µM
Second compound 0.316 µM
  IC50: > 0.1 µM
Second compound 1 µM
  IC50: > 0.1 µM
Second compound 3.16 µM
  IC50: > 0.1 µM
Second compound 10 µM
  IC50: > 0.1 µM
Second compound 0.0316 µM, first compound 0.000316 µM
  viability, T/C: 107%
Second compound 0.0316 µM, first compound 0.001 µM
  viability, T/C: 110%
Second compound 0.0316 µM, first compound 0.00316 µM
  viability, T/C: 118%
Second compound 0.0316 µM, first compound 0.01 µM
  viability, T/C: 89.7%
Second compound 0.0316 µM, first compound 0.0316 µM
  viability, T/C: 109%
Second compound 0.0316 µM, first compound 0.1 µM
  viability, T/C: 96.8%
Second compound 0.1 µM, first compound 0.000316 µM
  viability, T/C: 89.2%
Second compound 0.1 µM, first compound 0.001 µM
  viability, T/C: 96.9%
Second compound 0.1 µM, first compound 0.00316 µM
  viability, T/C: 100%
Second compound 0.1 µM, first compound 0.01 µM
  viability, T/C: 117%
Second compound 0.1 µM, first compound 0.0316 µM
  viability, T/C: 96%
Second compound 0.1 µM, first compound 0.1 µM
  viability, T/C: 107%
Second compound 0.316 µM, first compound 0.000316 µM
  viability, T/C: 92.9%
Second compound 0.316 µM, first compound 0.001 µM
  viability, T/C: 101%
Second compound 0.316 µM, first compound 0.00316 µM
  viability, T/C: 102%
Second compound 0.316 µM, first compound 0.01 µM
  viability, T/C: 103%
Second compound 0.316 µM, first compound 0.0316 µM
  viability, T/C: 97.3%
Second compound 0.316 µM, first compound 0.1 µM
  viability, T/C: 89.3%
Second compound 1 µM, first compound 0.000316 µM
  viability, T/C: 95.2%
Second compound 1 µM, first compound 0.001 µM
  viability, T/C: 89.9%
Second compound 1 µM, first compound 0.00316 µM
  viability, T/C: 99.3%
Second compound 1 µM, first compound 0.01 µM
  viability, T/C: 88.9%
Second compound 1 µM, first compound 0.0316 µM
  viability, T/C: 89.3%
Second compound 1 µM, first compound 0.1 µM
  viability, T/C: 79.5%
Second compound 3.16 µM, first compound 0.000316 µM
  viability, T/C: 90.9%
Second compound 3.16 µM, first compound 0.001 µM
  viability, T/C: 104%
Second compound 3.16 µM, first compound 0.00316 µM
  viability, T/C: 85.8%
Second compound 3.16 µM, first compound 0.01 µM
  viability, T/C: 101%
Second compound 3.16 µM, first compound 0.0316 µM
  viability, T/C: 92.3%
Second compound 3.16 µM, first compound 0.1 µM
  viability, T/C: 81.1%
Second compound 10 µM, first compound 0.000316 µM
  viability, T/C: 72%
Second compound 10 µM, first compound 0.001 µM
  viability, T/C: 75.9%
Second compound 10 µM, first compound 0.00316 µM
  viability, T/C: 81.9%
Second compound 10 µM, first compound 0.01 µM
  viability, T/C: 66.8%
Second compound 10 µM, first compound 0.0316 µM
  viability, T/C: 77.6%
Second compound 10 µM, first compound 0.1 µM
  viability, T/C: 73.3%

## COc1cc(Nc2ncc3c(n2)-c2ccc(Cl)cc2C(c2c(F)cccc2OC)=NC3)ccc1C(=O)O + C=CC(=O)N1CCN(c2nc(OCC3CCCN3C)nc3c2CCN(c2cccc4cccc(C)c24)C3)CC1CC#N
Second compound 0.00949 µM
  IC50: > 10 µM
Second compound 0.03 µM
  IC50: > 10 µM
Second compound 0.0949 µM
  IC50: > 10 µM
Second compound 0.3 µM
  IC50: > 10 µM
Second compound 0.949 µM
  IC50: 7.03 µM
Second compound 3 µM
  IC50: 5.92 µM
Second compound 0.00949 µM, first compound 0.0316 µM
  viability, T/C: 93.2%
Second compound 0.00949 µM, first compound 0.1 µM
  viability, T/C: 88%
Second compound 0.00949 µM, first compound 0.316 µM
  viability, T/C: 87.1%
Second compound 0.00949 µM, first compound 1 µM
  viability, T/C: 83.8%
Second compound 0.00949 µM, first compound 3.16 µM
  viability, T/C: 105%
Second compound 0.00949 µM, first compound 10 µM
  viability, T/C: 66.6%
Second compound 0.03 µM, first compound 0.0316 µM
  viability, T/C: 77.3%
Second compound 0.03 µM, first compound 0.1 µM
  viability, T/C: 86.9%
Second compound 0.03 µM, first compound 0.316 µM
  viability, T/C: 86%
Second compound 0.03 µM, first compound 1 µM
  viability, T/C: 82.9%
Second compound 0.03 µM, first compound 3.16 µM
  viability, T/C: 102%
Second compound 0.03 µM, first compound 10 µM
  viability, T/C: 68.2%
Second compound 0.0949 µM, first compound 0.0316 µM
  viability, T/C: 80.4%
Second compound 0.0949 µM, first compound 0.1 µM
  viability, T/C: 108%
Second compound 0.0949 µM, first compound 0.316 µM
  viability, T/C: 98.5%
Second compound 0.0949 µM, first compound 1 µM
  viability, T/C: 74.7%
Second compound 0.0949 µM, first compound 3.16 µM
  viability, T/C: 81.6%
Second compound 0.0949 µM, first compound 10 µM
  viability, T/C: 61.2%
Second compound 0.3 µM, first compound 0.0316 µM
  viability, T/C: 79.8%
Second compound 0.3 µM, first compound 0.1 µM
  viability, T/C: 79.5%
Second compound 0.3 µM, first compound 0.316 µM
  viability, T/C: 76.9%
Second compound 0.3 µM, first compound 1 µM
  viability, T/C: 91.1%
Second compound 0.3 µM, first compound 3.16 µM
  viability, T/C: 87.5%
Second compound 0.3 µM, first compound 10 µM
  viability, T/C: 69%
Second compound 0.949 µM, first compound 0.0316 µM
  viability, T/C: 59.9%
Second compound 0.949 µM, first compound 0.1 µM
  viability, T/C: 78.9%
Second compound 0.949 µM, first compound 0.316 µM
  viability, T/C: 92.3%
Second compound 0.949 µM, first compound 1 µM
  viability, T/C: 75.8%
Second compound 0.949 µM, first compound 3.16 µM
  viability, T/C: 73.2%
Second compound 0.949 µM, first compound 10 µM
  viability, T/C: 39.7%
Second compound 3 µM, first compound 0.0316 µM
  viability, T/C: 93.4%
Second compound 3 µM, first compound 0.1 µM
  viability, T/C: 88.5%
Second compound 3 µM, first compound 0.316 µM
  viability, T/C: 96.4%
Second compound 3 µM, first compound 1 µM
  viability, T/C: 102%
Second compound 3 µM, first compound 3.16 µM
  viability, T/C: 73.2%
Second compound 3 µM, first compound 10 µM
  viability, T/C: 30.7%
